Data taken from ChEMBL document CHEMBL1759964, “Structure-based virtual screening approach to the discovery of phosphoinositide 3-kinase alpha inhibitors” (Bioorg Med Chem Lett, 2011).

Target: Phosphatidylinositol 4,5-bisphosphate 3-kinase catalytic subunit alpha isoform (Homo sapiens, UniProt P42336)
Assay: Inhibition of PI3Kalpha

Sequence of Phosphatidylinositol 4,5-bisphosphate 3-kinase catalytic subunit alpha isoform (P42336 whole entry, canonical isoform): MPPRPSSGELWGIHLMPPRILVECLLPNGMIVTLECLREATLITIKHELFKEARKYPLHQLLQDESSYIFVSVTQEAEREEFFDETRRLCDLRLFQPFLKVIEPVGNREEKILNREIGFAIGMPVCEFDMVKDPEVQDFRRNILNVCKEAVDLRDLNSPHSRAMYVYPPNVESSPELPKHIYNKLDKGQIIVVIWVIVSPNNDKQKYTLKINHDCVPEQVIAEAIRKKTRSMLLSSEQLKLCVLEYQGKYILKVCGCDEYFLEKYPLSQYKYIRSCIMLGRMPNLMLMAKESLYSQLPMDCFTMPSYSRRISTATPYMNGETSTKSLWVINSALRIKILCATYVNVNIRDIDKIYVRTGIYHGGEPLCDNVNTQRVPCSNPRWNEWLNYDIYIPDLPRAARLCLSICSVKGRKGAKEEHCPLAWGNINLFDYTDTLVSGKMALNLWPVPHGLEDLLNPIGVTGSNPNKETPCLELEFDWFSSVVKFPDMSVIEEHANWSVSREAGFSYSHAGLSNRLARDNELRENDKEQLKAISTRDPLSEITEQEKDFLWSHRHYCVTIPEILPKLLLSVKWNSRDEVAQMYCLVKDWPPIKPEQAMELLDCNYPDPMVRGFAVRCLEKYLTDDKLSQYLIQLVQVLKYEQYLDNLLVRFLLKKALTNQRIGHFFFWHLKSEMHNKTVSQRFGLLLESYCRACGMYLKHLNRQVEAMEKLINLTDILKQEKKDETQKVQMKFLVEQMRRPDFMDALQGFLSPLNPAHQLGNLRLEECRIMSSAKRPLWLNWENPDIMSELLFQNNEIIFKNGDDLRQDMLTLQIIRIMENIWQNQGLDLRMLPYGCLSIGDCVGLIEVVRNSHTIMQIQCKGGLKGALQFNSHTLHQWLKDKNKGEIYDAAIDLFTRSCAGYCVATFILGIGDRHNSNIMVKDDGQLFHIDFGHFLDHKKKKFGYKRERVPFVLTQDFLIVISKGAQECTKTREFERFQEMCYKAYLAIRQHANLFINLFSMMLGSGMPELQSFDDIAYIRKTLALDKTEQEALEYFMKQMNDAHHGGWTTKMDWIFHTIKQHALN

IC50	SMILES
40 µM	Cc1ccc(OCC(=O)Nc2ccc(-c3nnc(-c4ccco4)o3)cc2)cc1
28 µM	Cc1cccc(NC(=O)c2ccc(Cn3cnc4ccccc4c3=O)o2)n1
23 µM	Cc1nc(N/C(N)=N/C(=O)c2ccccc2N)nc2ccccc12
40 µM	CCOc1ccc2nc3cc(/N=C/c4ccco4)ccc3c(N)c2c1
